Test results taken from patent publication US20260001847A1, “HERBICIDAL QUINOLONE DERIVATIVES” (SYNGENTA CROP PROTECTION AG, priority 2022, published 2026).

Experiments:
Format in all cases: in vivo
Settings in all cases: 1000 g/ha, evaluated after 13 days
[1] = test system: Ipomoea hederacea (IPOHE); assay: Pre-emergence Test
[2] = test system: Amaranthus retoflexus (AMARE); assay: Post-emergence Test
Method: (§1) Seeds of a variety of test species are sown in standard soil in pots (Abutilon theophrasti (ABUTH), Ipomoea hederacea (IPOHE). Setaria faberi (SETFA), Echinochloa crus-galli (ECHCG), Zea mays (ZEAMX), Amaranthus retoflexus (AMARE), Solanum nigrum (SOLNI), Lolium perenne (LOLPE), Amaranthus palmeri (AMAPA)). After 8 days cultivation under controlled conditions in a glasshouse (at 24° C./16° C., day/night-; 14 hours light; 65% humidity), the plants are sprayed with an aqueous spray solution derived from the formulation of the technical active ingredient in acetone/water (50:50) solution containing 0.5% Tween 20 (polyoxyethylene sorbitan monolaurate, CAS RN 9005-64-5). Compounds are applied at 1000 g/ha unless otherwise stated. The test plants are then grown in a glasshouse under controlled conditions in a glasshouse (at 24° C./16° C., day/night; 14 hours light; 65% humidity) and watered twice daily. After 13 days the test is evaluated for the percentage damage caused to the plant. The biological activities are shown in the following table on a five-point scale (5=81-100%; 4=61-80%; 3=41-60%; 2=21-40%; 1=0-20%; -=not tested).

Zea mays (ZEAMX) [3] = assay: Post-emergence Test
Method: as §1

[4] = test system: Ipomoea hederacea (IPOHE); assay: Post-emergence Test
Method: as §1

[5] = test system: Echinochloa crus-galli (ECHCG); assay: Post-emergence Test
Method: as §1

Setaria faberi (SETFA) [6] = assay: Post-emergence Test
Method: as §1

[7] = test system: Echinochloa crus-galli (ECHCG); assay: Pre-emergence Test
[8] = test system: Abutilon theophrasti (ABUTH); assay: Pre-emergence Test
Setaria faberi (SETFA) [9] = assay: Pre-emergence Test
Zea mays (ZEAMX) [10] = assay: Pre-emergence Test
[11] = test system: Amaranthus palmeri (AMAPA); assay: Post-emergence Test
Method: as §1

[12] = test system: Amaranthus retoflexus (AMARE); assay: Pre-emergence Test
[13] = test system: Amaranthus palmeri (AMAPA); assay: Pre-emergence Test
Lolium perenne (LOLPE) [14] = assay: Pre-emergence Test
Solanum nigrum (SOLNI) [15] = assay: Post-emergence Test
Method: as §1

Lolium perenne (LOLPE) [16] = assay: Post-emergence Test
Method: as §1

[17] = test system: Abutilon theophrasti (ABUTH); assay: Post-emergence Test
Method: as §1

Solanum nigrum (SOLNI) [18] = assay: Pre-emergence Test

SMILES | percentage damage caused to the plant, IPOHE [1] | percentage damage caused to the plant, AMARE [2] | percentage damage caused to the plant, ZEAMX (Zea mays (ZEAMX) [3]) | percentage damage caused to the plant, IPOHE [4] | percentage damage caused to the plant, ECHCG [5] | percentage damage caused to the plant, SETFA (Setaria faberi (SETFA) [6]) | percentage damage caused to the plant, ECHCG [7] | percentage damage caused to the plant, ABUTH [8] | percentage damage caused to the plant, SETFA (Setaria faberi (SETFA) [9]) | percentage damage caused to the plant, ZEAMX (Zea mays (ZEAMX) [10]) | percentage damage caused to the plant, AMAPA [11] | percentage damage caused to the plant, AMARE [12] | percentage damage caused to the plant, AMAPA [13] | percentage damage caused to the plant, LOLPE (Lolium perenne (LOLPE) [14]) | percentage damage caused to the plant, SOLNI (Solanum nigrum (SOLNI) [15]) | percentage damage caused to the plant, LOLPE (Lolium perenne (LOLPE) [16]) | percentage damage caused to the plant, ABUTH [17] | percentage damage caused to the plant, SOLNI (Solanum nigrum (SOLNI) [18])
CCn1c(-c2ccc(Cl)c(Cl)c2)c(C(=O)O)c(=O)c2ccc(OC)cc21 [Compound 1, 2-(3,4-dichlorophenyl)-1-ethyl-7-methoxy-4-oxo-quinoline-3-carboxylic acid] | 2 (2=21-40%) | 0 | 0 | 3 (3=41-60%) | 1 (1=0-20%) | 2 (2=21-40%) | 1 (1=0-20%) | 3 (3=41-60%) | 2 (2=21-40%) | 1 (1=0-20%) |  |  |  |  |  |  |  | 
CCn1c(-c2ccc(Cl)c(Cl)c2)c(C(=O)O)c(=O)c2cc(Br)ccc21 [Compound 8, 6-bromo-2-(3,4-dichlorophenyl)-1-ethyl-4-oxo-quinoline-3-carboxylic acid] | 1 (1=0-20%) | 0 | 4 (4=61-80%) | 4 (4=61-80%) | 4 (4=61-80%) | 4 (4=61-80%) | 5 (5=81-100%) |  | 5 (5=81-100%) | 2 (2=21-40%) | 1 (1=0-20%) | 1 (1=0-20%) | 2 (2=21-40%) |  |  |  |  | 
CCn1c(-c2ccc(Cl)c(Cl)c2)c(C(=O)O)c(=O)c2c(C(F)(F)F)cccc21 [Compound 2, 2-(3,4-dichlorophenyl)-1-ethyl-4-oxo-5-(trifluoromethyl)quinoline-3-carboxylic acid] | 2 (2=21-40%) | 2 (2=21-40%) | 3 (3=41-60%) | 3 (3=41-60%) | 5 (5=81-100%) | 4 (4=61-80%) | 5 (5=81-100%) | 2 (2=21-40%) | 5 (5=81-100%) | 1 (1=0-20%) |  | 2 (2=21-40%) |  | 0 | 2 (2=21-40%) | 1 (1=0-20%) | 3 (3=41-60%) | 2 (2=21-40%)
CCn1c(-c2ccc(Cl)c(Cl)c2)c(C(=O)O)c(=O)c2cc(OC)ccc21 [Compound 15, 2-(3,4-dichlorophenyl)-1-ethyl-6-methoxy-4-oxo-quinoline-3-carboxylic acid] | 2 (2=21-40%) | 2 (2=21-40%) | 1 (1=0-20%) | 2 (2=21-40%) | 3 (3=41-60%) | 2 (2=21-40%) | 4 (4=61-80%) |  | 5 (5=81-100%) | 1 (1=0-20%) | 2 (2=21-40%) | 3 (3=41-60%) | 3 (3=41-60%) |  |  |  |  | 
CCn1c(-c2ccc(Cl)c(Cl)c2)c(C(=O)O)c(=O)c2cc(C)ccc21 [Compound 14, 2-(3,4-dichlorophenyl)-1-ethyl-6-methyl-4-oxo-quinoline-3-carboxylic acid] | 2 (2=21-40%) | 5 (5=81-100%) | 2 (2=21-40%) | 3 (3=41-60%) | 3 (3=41-60%) | 3 (3=41-60%) | 4 (4=61-80%) |  | 4 (4=61-80%) | 2 (2=21-40%) | 5 (5=81-100%) | 5 (5=81-100%) | 5 (5=81-100%) |  |  |  |  | 
CCn1c(-c2ccc(F)cc2)c(C(=O)O)c(=O)c2ccccc21 [Compound 18, 1-ethyl-2-(4-fluorophenyl)-4-oxo-quinoline-3-carboxylic acid] | 0 | 1 (1=0-20%) | 1 (1=0-20%) | 0 | 1 (1=0-20%) | 1 (1=0-20%) | 2 (2=21-40%) |  | 3 (3=41-60%) | 0 | 1 (1=0-20%) | 1 (1=0-20%) | 1 (1=0-20%) |  |  |  |  | 
CCn1c(-c2ccc(Cl)c(Cl)c2)c(C(=O)O)c(=O)c2ccccc21 [Compound 3, 2-(3,4-dichlorophenyl)-1-ethyl-4-oxo-quinoline-3-carboxylic acid] | 3 (3=41-60%) | 3 (3=41-60%) | 1 (1=0-20%) | 4 (4=61-80%) | 3 (3=41-60%) | 4 (4=61-80%) | 5 (5=81-100%) | 1 (1=0-20%) | 5 (5=81-100%) | 3 (3=41-60%) |  | 2 (2=21-40%) |  | 3 (3=41-60%) | 4 (4=61-80%) | 2 (2=21-40%) | 2 (2=21-40%) | 4 (4=61-80%)
CCn1c(-c2ccc(Cl)c(Cl)c2)c(C(=O)O)c(=O)c2c(Br)cccc21 [Compound 4, 5-bromo-2-(3,4-dichlorophenyl)-1-ethyl-4-oxo-quinoline-3-carboxylic acid] | 1 (1=0-20%) | 0 | 1 (1=0-20%) | 1 (1=0-20%) | 1 (1=0-20%) | 1 (1=0-20%) | 5 (5=81-100%) |  | 5 (5=81-100%) | 3 (3=41-60%) | 0 | 1 (1=0-20%) | 2 (2=21-40%) |  |  |  |  | 
